Measured values as given in patent US6046171A, “6,11-bridged erythromycin derivatives” (priority 1998, dated 2000).
Converted amounts (≈) assume the structure as drawn.

Assays:
Assay type in all cases: cell-based
[1] = system: Enterococcus faecium ATCC 8Q43; experiment: in vitro antibacterial MIC, agar dilution; settings: organism code II; 35-37° C., 20 to 24 hours; unit assumed
Description: (§1) Representative compounds of the present invention were assayed in vitro for antibacterial activity as follows: Twelve petri dishes containing successive aqueous dilutions of the test compound mixed with 10 mL of sterilized Brain Heart Infusion (BHI) agar (Difco 0418-01-5) were prepared. Each plate was inoculated with 1:100 (or 1:10 for slow-growing strains, such as Micrococcus and Streptococcus) dilutions of up to 32 different microorganisms, using a Steers replicator block. […] In addition, a control plate, using BHI agar containing no test compound, was prepared and incubated at the beginning and end of each test.
(§2) An additional plate containing a compound having known susceptibility patterns for the organisms being tested and belonging to the same antibiotic class as the test compound was also prepared and incubated as a further control, as well as to provide test-to-test comparability.
(§3) After incubation, each plate was visually inspected. The minimum inhibitory concentration (MIC) was defined as the lowest concentration of drug yielding no growth, a slight haze, or sparsely isolated colonies on the inoculum spot as compared to the growth control.

[2] = system: Haemophilis Influenzae DILL AMP R; experiment: in vitro antibacterial MIC, agar dilution; settings: organism code WW; 35-37° C., 20 to 24 hours; unit assumed
Description: as §1, §2, §3

[3] = system: Streptococcus Pheumoniae 5649; experiment: in vitro antibacterial MIC, agar dilution; settings: organism code ZZA; 35-37° C., 20 to 24 hours; unit assumed
Description: as §1, §2, §3

[4] = system: Streptococcus Pheumoniae 5979; experiment: in vitro antibacterial MIC, agar dilution; settings: organism code ZZ; 35-37° C., 20 to 24 hours; unit assumed
Description: as §1, §2, §3

[5] = system: Streptococcus bovis A-5169; experiment: in vitro antibacterial MIC, agar dilution; settings: organism code JJ; 35-37° C., 20 to 24 hours; unit assumed
Description: as §1, §2, §3

[6] = system: Staphylococcus aureus ATCC 6538P; experiment: in vitro antibacterial MIC, agar dilution (BHI agar, Steers replicator); settings: organism code AA; 35-37° C., 20 to 24 hours; unit assumed
Description: as §1, §2, §3

Escherichia coli SS = experiment: in vitro antibacterial MIC, agar dilution; settings: organism code RR; 35-37° C., 20 to 24 hours; unit assumed
Description: as §1, §2, §3

[7] = system: Micrococcus luteus ATCC 4698; experiment: in vitro antibacterial MIC, agar dilution; settings: organism code PP; 35-37° C., 20 to 24 hours; unit assumed
Description: as §1, §2, §3

[8] = system: Micrococcus luteus ATCC 9341; experiment: in vitro antibacterial MIC, agar dilution; settings: organism code OO; 35-37° C., 20 to 24 hours; unit assumed
Description: as §1, §2, §3

[9] = system: Mycobacterium smegmatis ATCC 114; experiment: in vitro antibacterial MIC, agar dilution; settings: organism code UU; 35-37° C., 20 to 24 hours; unit assumed
Description: as §1, §2, §3

[10] = system: Nocardia Asteroides ATCC9970; experiment: in vitro antibacterial MIC, agar dilution; settings: organism code VV; 35-37° C., 20 to 24 hours; unit assumed
Description: as §1, §2, §3

[11] = system: Staphylococcus aureus A5177; experiment: in vitro antibacterial MIC, agar dilution; settings: organism code BB; 35-37° C., 20 to 24 hours; unit assumed
Description: as §1, §2, §3

[12] = system: Staphylococcus aureus CMX 553; experiment: in vitro antibacterial MIC, agar dilution; settings: organism code FF; 35-37° C., 20 to 24 hours; unit assumed
Description: as §1, §2, §3

[13] = system: Staphylococcus aureus CMX 642A; experiment: in vitro antibacterial MIC, agar dilution; settings: organism code DD; 35-37° C., 20 to 24 hours; unit assumed
Description: as §1, §2, §3

[14] = system: Staphylococcus aureus NCTC10649M; experiment: in vitro antibacterial MIC, agar dilution; settings: organism code EE; 35-37° C., 20 to 24 hours; unit assumed
Description: as §1, §2, §3

[15] = system: Staphylococcus epidermidis 3519; experiment: in vitro antibacterial MIC, agar dilution; settings: organism code HH; 35-37° C., 20 to 24 hours; unit assumed
Description: as §1, §2, §3

[16] = system: Streptococcus agalactiae CMX 508; experiment: in vitro antibacterial MIC, agar dilution; settings: organism code KK; 35-37° C., 20 to 24 hours; unit assumed
Description: as §1, §2, §3

[17] = system: Streptococcus pyogenes 930; experiment: in vitro antibacterial MIC, agar dilution; settings: organism code MM; 35-37° C., 20 to 24 hours; unit assumed
Description: as §1, §2, §3

[18] = system: Streptococcus pyogenes EES61; experiment: in vitro antibacterial MIC, agar dilution; settings: organism code LL; 35-37° C., 20 to 24 hours; unit assumed
Description: as §1, §2, §3

[19] = system: Streptococcus pyogenes PIU 2548; experiment: in vitro antibacterial MIC, agar dilution; settings: organism code NN; 35-37° C., 20 to 24 hours; unit assumed
Description: as §1, §2, §3

[20] = system: Streptococcus Pheumoniae ATCC6303; experiment: in vitro antibacterial MIC, agar dilution; settings: organism code XX; 35-37° C., 20 to 24 hours; unit assumed
Description: as §1, §2, §3

Row | SMILES | MIC [1] [µg/mL] | MIC [2] [µg/mL] | MIC [3] [µg/mL] | MIC [4] [µg/mL] | MIC [5] [µg/mL] | MIC [6] [µg/mL] | MIC (Escherichia coli SS) [µg/mL] | MIC [7] [µg/mL] | MIC [8] [µg/mL] | MIC [9] [µg/mL] | MIC [10] [µg/mL] | MIC [11] [µg/mL] | MIC [12] [µg/mL] | MIC [13] [µg/mL] | MIC [14] [µg/mL] | MIC [15] [µg/mL] | MIC [16] [µg/mL] | MIC [17] [µg/mL] | MIC [18] [µg/mL] | MIC [19] [µg/mL] | further results
1 | CC[C@H]1OC(=O)[C@H](C)[C@@H](O[C@H]2C[C@@](C)(OC)[C@@H](O)[C@H](C)O2)[C@H](C)[C@@H](O[C@@H]2O[C@H](C)C[C@H](N(C)C)[C@H]2O)[C@@]2(C)C[C@@H](C)C(=O)[C@H](C)[C@H]3N(CCCCO2)C(=O)O[C@]13C [Example 15] | 0.1 (≈ 0.123 µM) | 32 (≈ 39.4 µM) | 16 (≈ 19.7 µM) | > 128 | 0.05 (≈ 0.0615 µM) |  |  |  |  |  |  |  |  |  |  |  |  |  |  |  | 
2 | CC[C@H]1OC(=O)[C@H](C)[C@@H](O[C@H]2C[C@@](C)(OC)[C@@H](OC(C)=O)[C@H](C)O2)[C@H](C)[C@@H](O[C@@H]2O[C@H](C)C[C@H](N(C)C)[C@H]2O)[C@@]2(C)C[C@@H](C)C(=O)[C@H](C)[C@H]3N(CCNCc4cccc(c4)C=CCO2)C(=O)O[C@]13C [Example 10] | 0.78 (≈ 0.802 µM) |  | 8 (≈ 8.23 µM) |  | 0.39 (≈ 0.401 µM) | 6.2 (≈ 6.38 µM) | 6.2 (≈ 6.38 µM) | 1.56 (≈ 1.6 µM) | 0.39 (≈ 0.401 µM) | 0.39 (≈ 0.401 µM) | 1.56 (≈ 1.6 µM) | 25 (≈ 25.7 µM) | 6.2 (≈ 6.38 µM) | 6.2 (≈ 6.38 µM) | 6.2 (≈ 6.38 µM) | 6.2 (≈ 6.38 µM) | 0.39 (≈ 0.401 µM) | 25 (≈ 25.7 µM) | 0.78 (≈ 0.802 µM) | 6.2 (≈ 6.38 µM) | 
3 | CC[C@H]1OC(=O)[C@H](C)C(=O)[C@H](C)[C@@H](O[C@@H]2O[C@H](C)C[C@H](N(C)C)[C@H]2O)[C@@]2(C)C[C@@H](C)C(=O)[C@H](C)[C@H]3N(CCC=CCO2)C(=O)O[C@]13C [Example 18] | 0.39 (≈ 0.587 µM) | 128 (≈ 193 µM) | 2 (≈ 3.01 µM) | > 128 | 0.2 (≈ 0.301 µM) | 0.78 (≈ 1.17 µM) |  | 0.78 (≈ 1.17 µM) | 0.39 (≈ 0.587 µM) |  | 0.78 (≈ 1.17 µM) | 0.78 (≈ 1.17 µM) | 0.78 (≈ 1.17 µM) | 0.78 (≈ 1.17 µM) | 0.78 (≈ 1.17 µM) |  | 0.2 (≈ 0.301 µM) |  | 0.2 (≈ 0.301 µM) |  | MIC [20]: 1 µg/mL (≈ 1.5 µM)
4 | CC[C@H]1OC(=O)[C@H](C)C(=O)[C@H](C)[C@@H](O[C@@H]2O[C@H](C)C[C@H](N(C)C)[C@H]2O)[C@@]2(C)C[C@@H](C)C(=O)[C@H](C)[C@H]3N(CCOCc4ccccc4C=CCO2)C(=O)O[C@]13C [Example 12] | 0.1 (≈ 0.13 µM) | 16 (≈ 20.8 µM) | 1 (≈ 1.3 µM) | 128 (≈ 166 µM) |  | 0.78 (≈ 1.01 µM) | 1.56 (≈ 2.02 µM) |  |  | 0.78 (≈ 1.01 µM) | 0.78 (≈ 1.01 µM) | 0.78 (≈ 1.01 µM) | 0.78 (≈ 1.01 µM) | 0.78 (≈ 1.01 µM) | 0.78 (≈ 1.01 µM) | 0.78 (≈ 1.01 µM) |  | 50 (≈ 64.9 µM) |  |  | 
5 | CC[C@H]1OC(=O)[C@H](C)[C@@H](O[C@H]2C[C@@](C)(OC)[C@@H](O)[C@H](C)O2)[C@H](C)[C@@H](O[C@@H]2O[C@H](C)C[C@H](N(C)C)[C@H]2O)[C@@]2(C)C[C@@H](C)C(=O)[C@H](C)[C@H]3N(CC(O)CC=CCO2)C(=O)O[C@]13C (stereo partly drawn) [Example 19] | 0.1 (≈ 0.117 µM) | 8 (≈ 9.36 µM) | 16 (≈ 18.7 µM) | > 128 | 0.02 (≈ 0.0234 µM) |  |  |  | 0.05 (≈ 0.0585 µM) |  | 0.05 (≈ 0.0585 µM) |  |  |  |  |  | 0.05 (≈ 0.0585 µM) |  | 0.05 (≈ 0.0585 µM) | 12.5 (≈ 14.6 µM) | 
